Experimental data: US20110098288A1, “SULFONAMIDES AS ZAP-70 INHIBITORS” (priority 2008, published 2011)
Structures can show the parent of a compound that is named as a salt.

Legend:
ZAP-70 = target: T1, ZAP-70 (Homo sapiens, UniProt P43403); experiment: ZAP-70 kinobeads assay; assay type: binding; settings: competition with immobilized aminopyrido-pyrimidine ligand 24 in cell lysate; ZAP-70 detected by dot blot
T1 construct: endogenous in cells; host or cells: cell lysate
T1 sequence (P43403 1-619): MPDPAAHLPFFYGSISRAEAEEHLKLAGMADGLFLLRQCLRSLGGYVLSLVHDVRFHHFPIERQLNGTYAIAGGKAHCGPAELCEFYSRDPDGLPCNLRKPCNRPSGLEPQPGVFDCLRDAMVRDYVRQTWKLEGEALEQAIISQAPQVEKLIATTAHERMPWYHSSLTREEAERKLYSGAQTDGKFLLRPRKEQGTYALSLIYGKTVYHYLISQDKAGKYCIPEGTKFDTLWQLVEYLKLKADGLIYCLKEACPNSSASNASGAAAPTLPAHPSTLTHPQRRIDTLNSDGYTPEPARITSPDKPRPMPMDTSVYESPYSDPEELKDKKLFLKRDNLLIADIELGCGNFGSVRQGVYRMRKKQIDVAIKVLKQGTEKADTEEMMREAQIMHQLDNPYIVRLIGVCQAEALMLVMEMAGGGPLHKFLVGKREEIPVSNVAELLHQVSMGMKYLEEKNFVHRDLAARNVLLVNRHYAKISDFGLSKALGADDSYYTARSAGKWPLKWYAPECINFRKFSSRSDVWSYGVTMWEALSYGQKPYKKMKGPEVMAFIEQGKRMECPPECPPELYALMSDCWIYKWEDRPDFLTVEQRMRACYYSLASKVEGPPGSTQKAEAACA
Outline: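 Competition binding format: compounds compete with a bead-immobilized aminopyrido-pyrimidine ligand for ZAP-70 in cell lysate. After bead separation and elution, bound ZAP-70 measured by antibody dot blot with infrared read-out.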

Jurkat cells = experiment: Calcium release assay (Fluo-4 flow cytometry after anti-CD3 stimulation); assay type: cell-based; settings: Homo sapiens, Jurkat cell line J77, anti-CD3 activation, read-out: IC50 (Calcium ion release in cells)
Method: Compounds of the present invention were tested in a Calcium release assay as described below.
The development of fluorescent probes makes it possible to measure the concentration of intracellular free Calcium ions in single living cells. Cells are first loaded with a cell-permeable Ca^2+-sensitive dye, then the test compound is added. Finally, cells are activated through the T cell receptor with an anti-CD3 antibody shortly before data acquisition on the flow cytometer. The release of Ca^2+ is measured as a function of time after cell stimulation. This protocol describes the flow cytometry method using the Fluo-3 and Fluo-4 dyes (Minta et al., 1989, J. Biol. Chem. 264(14):8171-8178) to measure the intracellular Ca^2+ concentration in Jurkat cells (see also June et al., 1997, Measurement of intracellular calcium ions by flow cytometry. In: Current Protocols in Cytometry (1997) Unit 9.8.1-9.8.19, John Wiley & Sons, Inc.).
In general, cells should be handled in the shortest time possible to assure their stability. Therefore the preparation of all materials in advance is highly recommended as well as using any incubation or centrifugation time to prepare the next steps (e.g. preparing compound dilution or starting the flow cytometer).
1) Prepare a work plan indicating the number of samples to be analyzed including controls. 2) Cell harvest: Centrifuge 50 to 100 ml of a Jurkat cell culture for 5 minutes at 1100 rpm. Discard the supernatant, pool the resuspended cell pellets in a single 50 ml Falcon tube, and fill up to 50 ml with PBS—CaCl2 (without FCS). Centrifuge again sample again. 3) Resuspend cell pellet with PBS—CaCl2 (without FCS) to achieve a concentration not lower than 10×10^6 cells/ml. Prepare an adequate dilution to evaluate the cell concentration and count the cells. 4) Separate the volume of cells needed to be loaded (for example […] for 20 samples) in a 50 ml Falcon tube. Fill up with PBS—CaCl2 to 900 μl for 107 cells. 5) Prepare in the dark a 1:1 mix of FLUO-4 (1 mM)+Pluronic F-127 (20%). 5 μl of Fluo-4 are needed per 107 cells. 6) Prepare a 1/10 dilution of this mix with PBS—CaCl2 (in the dark; for example 5 μl Fluo-4+5 μl F-127 completed to 100 μl). 7) Add the dye solution to the cells. […] 8) Incubate the sample for 30 minutes in a cell incubator (37° C., 5% CO2). Mix from time to time. 9) During this time prepare the adequate test compound dilution in PBS—CaCl2 (with 10% FCS). The solution should be 10 times more concentrated than the desired final concentration. Vortex each dilution. Prepare also the antibody dilutions: anti-CD3 (1/200) and GAM (1/25). 10) Label FACS tubes and distribute in the corresponding tube 30 μl of the compound dilution or only buffer for the control tubes. 11) After 30 minutes of incubation wash the cells twice in PBS—CaCl2 (with 10% FCS). During the washing steps make sure that the flow cytometer is already “ON” in order to warm the laser. 12) Resuspend the cell pellet in PBS—CaCl2 (with 10% FCS) at a concentration of 1.5×10^6 cells/ml. 13) Distribute 300 μl of cell suspension into the FACS tubes and mix gently. The compound incubation is starting. Keep samples at room temperature in the dark. 14) Open the settings of the cytometer. It is advised to have a template ready which is used for all measurements. Settings of the machine should also be the same from one experiment to the other which permits to evaluate the reproducibility of the cell preparation. 15) In Setup modus control your cell preparation on the cytometer. Cells should fit in the pre-defined gates. 16) During the compound incubation time, check also that cells are responding to the anti-CD3 activation as expected. Set a timer at 8 sec. Add 6 μl of anti-CD3 dilution (0.2 μg/ml final) and mix gently. Add 1 μl of GAM dilution (0.75 μg/ml final) and mix gently. Incubate the samples in water bath at 37° C. while starting timer. After 8 seconds of incubation, acquire data at medium speed for 200 seconds. […]

SMILES	IC50 (ZAP-70) [nM]	IC50 (Jurkat cells) [nM]
CS(=O)(=O)Nc1ccccc1Nc1nc(Nc2cccc(OCCN3CCCCC3)c2)ncc1F [Example 79, N-(2-(5-fluoro-2-(3-(2-(piperidin-1-yl)ethoxy)phenylamino)pyrimidin-4-ylamino)phenyl)methanesulfonamide formate]	< 100	< 100
CS(=O)(=O)Nc1ccccc1Nc1nc(Nc2cccc(OCCO)c2)ncc1F [Example 78, N-(2-(5-fluoro-2-(3-(2-hydroxyethoxy)phenylamino)pyrimidin-4-ylamino)phenyl)methanesulfonamide]	100 to 1000	< 100
COc1ccc(Nc2ncc(Br)c(Nc3ccccc3NS(C)(=O)=O)n2)cc1OC [Example 107, N-(2-(5-bromo-2-(3,4-dimethoxyphenylamino)pyrimidin-4-ylamino)phenyl)methanesulfonamide]	< 100	< 100
CS(=O)(=O)Nc1ccccc1Nc1nc(Nc2cccc(OCCN3CCCC3=O)c2)ncc1Cl [Example 130, N-(2-(5-chloro-2-(3-(2-(2-oxopyrrolidin-1-yl)ethoxy)phenylamino)pyrimidin-4-ylamino)phenyl)methanesulfonamide]	100 to 1000	< 100
CS(=O)(=O)Nc1ccccc1Nc1nc(Nc2ccc3cn[nH]c3c2)ncc1F [Example 32, N-(2-(2-(1H-indazol-6-ylamino)-5-fluoropyrimidin-4-ylamino)phenyl)methanesulfonamide]	100 to 1000	100 to 1000
COc1cc(Nc2ncc(F)c(Nc3ccccc3NS(C)(=O)=O)n2)ccc1N1CCCC1 [Example 88, N-(2-(5-fluoro-2-(3-methoxy-4-(pyrrolidin-1-yl)phenylamino)pyrimidin-4-ylamino)phenyl)methanesulfonamide]	100 to 1000	100 to 1000
COc1cc(Nc2ncc(F)c(Nc3ccc(NS(=O)(=O)c4ccccc4)cc3)n2)cc(OC)c1OC [Example 44, N-(4-(5-fluoro-2-(3,4,5-trimethoxyphenylamino)pyrimidin-4-ylamino)phenyl)benzenesulfonamide]	–	100 to 1000
CS(=O)(=O)Nc1ccccc1Nc1nc(Nc2cccc(OCCN3CCNCC3)c2)ncc1Cl [Example 133, N-(2-(5-chloro-2-(3-(2-(piperazin-1-yl)ethoxy)phenylamino)pyrimidin-4-ylamino)phenyl)methanesulfonamide trifluoroacetate]	< 100	–
CCN(CC)C(=O)c1cccc(Nc2ncc(F)c(Nc3ccccc3NS(C)(=O)=O)n2)c1 [Example 81, N,N-diethyl-3-(5-fluoro-4-(2-(methylsulfonamido)phenylamino)pyrimidin-2-ylamino)benzamide]	1000 to 10000	–
Cc1nc(-c2cccc(Nc3ncc(Cl)c(Nc4ccccc4NS(C)(=O)=O)n3)c2)no1 [Example 208, N-(2-(5-chloro-2-(3-(5-methyl-1,2,4-oxadiazol-3-yl)phenylamino)pyrimidin-4-ylamino)phenyl)methanesulfonamide]	100 to 1000	–
COc1ccc(Nc2nc(Nc3ccc(OC)c(OC)c3)ncc2Cl)c(NS(C)(=O)=O)c1 [Example 153, N-(2-(5-chloro-2-(3,4-dimethoxyphenylamino)pyrimidin-4-ylamino)-5-methoxyphenyl)methanesulfonamide]	< 100	–

Other lines, results leading:

IC50 (ZAP-70) [nM]	IC50 (Jurkat cells) [nM]	SMILES
100 to 1000	100 to 1000	COc1cc(Nc2ncc(F)c(Nc3ccc(F)c(C)c3NS(C)(=O)=O)n2)cc(OC)c1OC [Example 162, N-(3-fluoro-6-(5-fluoro-2-(3,4,5-trimethoxyphenylamino)pyrimidin-4-ylamino)-2-methylphenyl)methanesulfonamide]
1000 to 10000	100 to 1000	COc1cc(Nc2ncc(F)c(Nc3ccccc3NS(=O)(=O)c3ccsc3)n2)cc(OC)c1OC [Example 49, N-(2-(5-fluoro-2-(3,4,5-trimethoxyphenylamino)pyrimidin-4-ylamino)phenyl)thiopehene-3-sulfonamide]
100 to 1000	100 to 1000	CN1CCN(CCCOc2ccc(Nc3ncc(F)c(Nc4ccccc4NS(C)(=O)=O)n3)cc2)CC1 [Example 91, N-(2-(5-fluoro-2-(4-(3-(4-methylpiperazin-1-yl)propoxy)phenylamino)pyrimidin-4-ylamino)phenyl)methanesulfonamide]
< 100	< 100	COc1cc(Nc2ncc(Cl)c(Nc3ccccc3NS(C)(=O)=O)n2)cc(OC)c1OC [Example 138, N-(2-(5-chloro-2-(3,4,5-trimethoxyphenylamino)pyrimidin-4-ylamino)phenyl)methanesulfonamide hydrochloride]
–	100 to 1000	COc1cc(Nc2ncc(F)c(Nc3cccc(NS(=O)(=O)c4cccnc4)c3)n2)cc(OC)c1OC [Example 58, N-(3-(5-fluoro-2-(3,4,5-trimethoxyphenylamino)pyrimidin-4-ylamino)phenyl)pyridine-3-sulfonamide]
< 100	< 100	CN1CCN(CCCOc2ccc(Nc3ncc(Cl)c(Nc4ccccc4NS(C)(=O)=O)n3)cc2)CC1 [Example 136, N-(2-(5-chloro-2-(4-(3-(4-methylpiperazin-1-yl)propoxy)phenylamino)pyrimidin-4-ylamino)phenyl)methanesulfonamide]
< 100	< 100	COc1cc(Nc2ncc(F)c(Nc3ccc4c(c3NS(C)(=O)=O)OCCO4)n2)cc(OC)c1OC [Example 167, N-(6-(5-fluoro-2-(3,4,5-trimethoxyphenylamino)pyrimidin-4-ylamino)-2,3-dihydrobenzo[b][1,4]dioxin-5-yl)methanesulfonamide]
< 100	< 100	CS(=O)(=O)Nc1ccccc1Nc1nc(Nc2cccc(OCCO)c2)ncc1Cl [Example 123, N-(2-(5-chloro-2-(3-(2-hydroxyethoxy)phenylamino)pyrimidin-4-ylamino)phenyl)methanesulfonamide]
100 to 1000	–	CS(=O)(=O)Nc1ccccc1Nc1nc(Nc2cccc(OCC(=O)O)c2)ncc1Cl [Example 149, 2-(3-(5-chloro-4-(2-(methylsulfonamido)phenylamino)pyrimidin-2-ylamino)phenoxy)acetic acid hydrochloride]
100 to 1000	–	CS(=O)(=O)Nc1ccccc1Nc1nc(Nc2cccc(-n3cccn3)c2)ncc1Cl [Example 206, N-(2-(2-(3-(1H-pyrazol-1-yl)phenylamino)-5-chloropyrimidin-4-ylamino)phenyl)methanesulfonamide]
